Results published in publication PMC7910999, “Hyaluronidase Inhibitor-Incorporated Cross-Linked Hyaluronic Acid Hydrogels for Subcutaneous Injection” (Pharmaceutics, 2021).
≈ marks a conversion by molar mass, not a printed value. Read-outs that look alike come from different tables or passages of the source. One block for each molecule: values may come before it.

Legend:
[1] = target: T1, HAase (from bovine testes) (Bos taurus, UniProt Q2YDK3); assay: In vitro degradation of cHA hydrogels in PBS containing HAase; assay type: in vitro ADME; conditions: QCT loaded in cHA hydrogels, 8 h, 5 U/mL HAase
T1 construct: purchased Sigma-Aldrich Co. (St. Louis, MO, USA); host or cells: bovine testes (tissue-derived preparation)
T1 sequence (Q2YDK3 36-553): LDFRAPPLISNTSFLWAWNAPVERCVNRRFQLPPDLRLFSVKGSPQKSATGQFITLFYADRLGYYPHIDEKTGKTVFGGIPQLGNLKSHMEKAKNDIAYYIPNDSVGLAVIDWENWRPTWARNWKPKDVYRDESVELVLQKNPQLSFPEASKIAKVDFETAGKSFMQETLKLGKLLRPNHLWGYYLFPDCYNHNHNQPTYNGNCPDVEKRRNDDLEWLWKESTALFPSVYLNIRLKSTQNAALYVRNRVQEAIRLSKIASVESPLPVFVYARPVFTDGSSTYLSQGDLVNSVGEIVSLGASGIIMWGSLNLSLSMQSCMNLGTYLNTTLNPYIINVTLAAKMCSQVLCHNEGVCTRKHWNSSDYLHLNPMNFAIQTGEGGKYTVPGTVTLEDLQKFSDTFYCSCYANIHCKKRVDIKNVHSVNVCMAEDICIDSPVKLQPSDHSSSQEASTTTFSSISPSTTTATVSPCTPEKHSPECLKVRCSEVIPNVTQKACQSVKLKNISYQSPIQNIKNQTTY
Method: The in vitro degradation feature of the cHA hydrogel structures was investigated by monitoring the mass change of the hydrogels compared to their initial weight according to a previously reported, slightly modified method. Briefly, to evaluate the weight change of the cHA and QCT-loaded cHA hydrogels (i.e., cHA/QCT1, cHA/QCT3, and cHA/QCT5), each gel specimen (approximately 1.1 g) was placed into 10 mL of a PBS solution containing 5 U/mL of HAase. Upon immersion in the media, the weight of the hydrogels was measured at 2, 4, 6, and 8 h. The remaining weight percentage (%) of each hydrogel compared to the initial weight was recorded.

[2] = Solubility in various media (HPLC); assay type: physicochemical; conditions: for solubility: unpublished data
Method: In order to select a solvent for hydrating (i.e., swelling) the cHA gel, the solubilities of QTP hemifumarate and the QTP base in distilled water (DW), phosphate-buffered saline (PBS; pH = 7.4), and ethanol (EtOH) were determined by high-performance liquid chromatography (HPLC). Briefly, an excess amount of QTP hemifumarate or QTP base was added to 1 mL of each solvent and completely vortex-mixed with vortex shaker (Vortex-Genie 2; Scientific Industries, Inc., Bohemia, NY, USA) at […] 37 °C for 1 day. Upon reaching the steady state, each sample was centrifuged and filtered to eliminate undissolved fractions. An HPLC system equipped with an automatic injector (Waters 717 plus), a pump (Waters 1515; Waters Company, Milford, MA, USA), and a UV/VIS detector (Waters 2487) connected with a reverse-phase C18 column (Kinetex C18; 250 × 4.6 mm, 5 μm; Phenomenex, Torrance, CA, USA) was utilized for measuring the concentration of QTP in each medium. The flow rate of the mobile phase and the injection volume of the specimen were set to 1.0 mL/min and 20 μL, respectively. The mobile phase consisted of 30 mM ammonium acetate in DW (pH 6.0) and methanol (30:70, v/v). The absorption wavelength was set to 238 nm for detection and the retention time of QTP was 14 min [23].
The QTP base precipitate was prepared using a previously reported desalting method with a slight modification. Briefly, QTP hemifumarate (10 mg) was solubilized in a 1 N HCl solution (0.7 mL), and then, a 1 N NaOH solution (0.8 mL) was added for precipitating the QTP base. The sample was then centrifuged at 16,000× g for 5 min and the supernatant portion was eliminated. After adding 1 mL of DW to the precipitate, it was centrifuged again, and the supernatant was removed. Finally, the QTP base precipitate was freeze-dried at −70 °C for 48 h for further use.

[3] = rats, intragastric administration; cited from earlier work
[4] = In vitro release of QTP (dialysis bag method); assay type: physicochemical; conditions: within 8 h; PBS with 0.5% SLS, 37 °C
Method: The release of QTP from the cHA hydrogels was measured using the dialysis bag method. Briefly, aliquots of the free QTP solution (in ethanol/PEG 400/PBS = 1/1/2 (v/v/v)) and the QTP-loaded hydrogels (i.e., cHA/QTP and cHA/QTP/QCT5) (corresponding to 12 mg of QTP) were loaded into dialysis membranes (2 kDa of molecular weight cut-off; Cellu Sep H1, Membrane Filtration Products Ltd., Seguin, TX, USA). In case of cHA/QTP/QCT5 + HAase group, HAase (1 mg/mL) was added to the cHA/QTP/QCT5 hydrogel. Each membrane sac was immersed in PBS (20 mL) containing 0.5% SLS, and then they were agitated in a shaking water bath (37 °C) at 50 rpm. Aliquots of the release media were collected at 0.5, 1, 2, 4, 6, 8, 24, 48, 72, 96, 144, 168, 192, 288, 336, and 360 h, and the same volume of fresh medium was replenished each time. The QTP concentrations in the release media were quantitatively determined by the HPLC method described above.

Compound: O=c1c(O)c(-c2ccc(O)c(O)c2)oc2cc(O)cc(O)c12 [QCT, quercetin]
HAase inhibition [1]: inhibited HAase in a dose-dependent manner | solubility ([2]; ethanol, organic solvent or mixture, EtOH, read-out: Solubility in EtOH): 17.6 ± 1.05 mg/mL (≈ 58.4 mM) | solubility ([2]; water, read-out: Solubility in water): < 0.01 mg/mL

solubility at 1 day ([2]; ethanol, organic solvent or mixture, thermodynamic from solid, EtOH, Figure 2A): > 50 mg/mL
Compound: OCCOCCN1CCN(C2=Nc3ccccc3Sc3ccccc32)CC1 [QTP base, quetiapine]

Compound: OCCOCCN1CCN(C2=Nc3ccccc3Sc3ccccc32)CC1 [QTP, quetiapine]
Biological half-life [3]: 2.1 h | QTP diffused from the dialysis membrane [4]: over 90%
